From the supplement of paper PMC6045584
± gives the standard deviation of the averaged measurements.

Experiments:
[1] = compound: COc1cc2ncnc(Nc3ccc(F)c(Cl)c3)c2cc1OCCCN1CCOCC1 [GEFITINIB]; experiment: surviving fraction relative to DMSO-only wells; higher = less growth inhibition; conditions: exposure time: 5 days
Outline: (§1)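 Tumour cell lines were grown to log phase and seeded at 250–500 cells per well in 384-well plates. They were exposed continuously to inhibitors at 0.5, 1, 5, 10, 50, 100, 500 and 1000 nM for five days, beginning 24 hours after seeding. Surviving fraction is CellTiter-Glo luminescence normalised to the median of DMSO-only wells.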

[2] = compound: Cc1ccc(-c2cc(C(F)(F)F)nn2-c2ccc(S(N)(=O)=O)cc2)cc1 [CELECOXIB]; experiment: as above; conditions: exposure time: 5 days
Outline: as §1

Test System | surviving fraction ([1]; 0.5 nM) | surviving fraction ([1]; 1 nM) | surviving fraction ([1]; 5 nM) | surviving fraction ([1]; 10 nM) | surviving fraction ([1]; 50 nM) | surviving fraction ([1]; 100 nM) | surviving fraction ([1]; 500 nM) | surviving fraction ([1]; 1000 nM) | surviving fraction ([2]; 0.5 nM) | surviving fraction ([2]; 1 nM) | surviving fraction ([2]; 5 nM) | surviving fraction ([2]; 10 nM) | surviving fraction ([2]; 50 nM) | surviving fraction ([2]; 100 nM) | surviving fraction ([2]; 500 nM) | surviving fraction ([2]; 1000 nM)
SCC36 HEADNECK | 1.08 ± 0.091 | 1.02 ± 0.023 | 1.13 ± 0.057 | 0.972 ± 0.057 | 0.735 ± 0.11 | 0.643 ± 0.1 | 0.45 ± 0.03 | 0.397 ± 0.05 | 1.05 ± 0.029 | 0.924 ± 0.11 | 1.13 ± 0.057 | 1.09 ± 0.025 | 1.16 ± 0.12 | 1.08 ± 0.044 | 1.13 ± 0.079 | 1.04 ± 0.14
93VU HEADNECK |  | 1.07 ± 0.075 | 1.08 ± 0.027 | 1.04 ± 0.055 | 0.878 ± 0.044 | 0.751 ± 0.034 | 0.449 ± 0.044 | 0.383 ± 0.062 | 1.02 ± 0.064 | 1.11 ± 0.076 | 1.1 ± 0.043 | 1.08 ± 0.16 | 1.03 ± 0.083 | 1.08 ± 0.15 | 1.08 ± 0.052 | 1.07 ± 0.086
SG31 HEADNECK | 1.14 ± 0.13 | 1.09 ± 0.18 | 1.1 ± 0.28 | 1.11 ± 0.24 | 0.855 ± 0.24 | 0.845 ± 0.23 | 0.732 ± 0.2 | 0.54 ± 0.11 | 1.27 ± 0.19 | 1.4 ± 0.5 | 1.11 ± 0.21 | 1.11 ± 0.25 | 1.15 ± 0.17 | 1.1 ± 0.063 | 1.63 ± 0.2 | 1.52 ± 0.15
T47D BREAST | 1.08 ± 0.027 | 1.05 ± 0.064 | 1.07 ± 0.061 | 1.03 ± 0.029 | 1.13 ± 0.015 | 1.083 ± 0.01 | 1.065 ± 0.0084 | 1.06 ± 0.021 | 1.08 ± 0.026 | 1.05 ± 0.081 | 1.08 ± 0.043 | 1.08 ± 0.035 | 1.14 ± 0.054 | 1.15 ± 0.021 | 1.11 ± 0.014 | 1.13 ± 0.012
G292 BONE | 0.976 ± 0.023 | 1.03 ± 0.045 | 1.04 ± 0.035 | 1.059 ± 0.0083 | 1.03 ± 0.052 | 1.04 ± 0.04 | 0.954 ± 0.038 | 0.9402 ± 0.0094 | 1.03 ± 0.028 | 1.02 ± 0.05 | 1.03 ± 0.039 | 1 ± 0.057 | 1.04 ± 0.02 | 1.02 ± 0.047 | 0.996 ± 0.045 | 0.964 ± 0.076
JURKAT HAEMATOPOIETIC AND LYMPHOID TISSUE | 1.07 ± 0.016 | 1.09 ± 0.041 | 1.062 ± 0.0078 | 1.07 ± 0.021 | 1.05 ± 0.028 | 1.03 ± 0.025 | 1.02 ± 0.018 | 1.016 ± 0.0051 | 1.03 ± 0.036 | 1.05 ± 0.032 | 1.03 ± 0.017 | 1.05 ± 0.029 | 0.986 ± 0.034 | 1 ± 0.03 | 1.03 ± 0.013 | 0.975 ± 0.035
SUM44 BREAST | 1.27 ± 0.43 |  | 1.2 ± 0.32 | 1.19 ± 0.23 | 1.45 ± 0.42 | 1.33 ± 0.32 | 1.33 ± 0.49 | 1.14 ± 0.22 | 1.28 ± 0.4 | 1.25 ± 0.47 | 1.35 ± 0.54 | 1.26 ± 0.34 | 1.36 ± 0.47 | 1.46 ± 0.53 | 1.35 ± 0.5 | 1.37 ± 0.42
PCI30 HEADNECK | 0.996 ± 0.063 | 1.01 ± 0.051 | 1.071 ± 0.0044 | 1.12 ± 0.017 | 0.959 ± 0.095 | 0.842 ± 0.028 | 0.466 ± 0.026 | 0.393 ± 0.033 | 1.02 ± 0.095 | 1 ± 0.057 | 1.07 ± 0.044 | 1.07 ± 0.046 | 1.03 ± 0.12 | 1.01 ± 0.013 | 0.975 ± 0.051 | 0.928 ± 0.038
CME SYNOVIAL | 1.32 ± 0.14 | 1.3 ± 0.036 | 1.4 ± 0.12 | 1.44 ± 0.17 | 1.39 ± 0.12 | 1.41 ± 0.17 | 1.28 ± 0.096 | 1.18 ± 0.047 | 1.4 ± 0.11 | 1.45 ± 0.18 | 1.37 ± 0.076 | 1.34 ± 0.079 | 1.47 ± 0.23 | 1.41 ± 0.16 | 1.38 ± 0.13 | 1.34 ± 0.076
